Assay results taken from paper PMC5066224, “A Novel Resveratrol Based Tubulin Inhibitor Induces Mitotic Arrest and Activates Apoptosis in Cancer Cells” (Scientific Reports, 2016).

How the values were obtained:
A549 cells = experiment: Immunofluorescence microscopy of spindle microtubule organisation; format: cell-based, human; settings: A549, positive control, compared to untreated cells
Method: Immunofluorescence microscopy was performed as previously described. A549 cells were grown on coverslips coated with gelatin (0.1%). […] After 24 h of the treatment nonspecific antibody binding sites were blocked using FBS following which cells were incubated with antitubulin antibody (1:500) at RT. Coverslips were washed in PBS, incubated in biotinylated antimouse secondary antibody (1:500; RT for 1 h) followed by Streptavidin-FITC (1:200). Finally, cells were mounted with DABCO and images were captured using Zeiss Fluorescence microscope and analyzed using Axio vision software. Colchicine treated cells were used as a positive control.

CEM cells = experiment: Intracellular ROS production (H2DCFDA, flow cytometry); format: cell-based, Human; settings: 5 to 60 min
Method: Intracellular ROS generation in cells was assessed using the oxidation-sensitive fluorescent probe 2,7-dichlorodihydro fluorescein diacetate (H2DCFDA) as previously described. CEM cells were treated with SS28 (5 μM) for 5, 10, 15, 30 and 60 min, harvested, washed and incubated with H2DCFDA (30 min at 37 °C) and then fluorescence intensity was analyzed by flow cytometry. H2O2 was used as the positive control.

SMILES	effect on chromosomes and mitosis (immunofluorescence) (A549 cells)	intracellular ROS production (CEM cells)
COc1cc2c(c(OC)c1OC)-c1ccc(OC)c(=O)cc1[C@@H](NC(C)=O)CC2 [Colchicine, reference compound]	chromosome condensation and metaphase arrest was observed	–
OO [H2O2, reference compound]	–	distinct ROS production
